Results as given in ChEMBL document CHEMBL1201862, “PubChem BioAssay data set” (2004).
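Five compound concentrations were applied to cells in 96-well plates for 48 hours; endpoints were derived by simple linear interpolation of the resulting dose-response curve. GI50 marks 50% less growth.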 Active and inactive are the calls of the source. Cut-off read from the data, not from the text of the source: active = GI50 up to about 1.1 µM and inactive = higher.

Key:
Assay in all cases: DTP human tumour cell line panel, 48 h
[1] = test system: LOX IMVI
[2] = test system: M14
[3] = test system: CAKI-1
[4] = test system: ACHN
[5] = test system: TK-10
[6] = test system: SNB-75
[7] = test system: UACC-62
[8] = test system: U-251
[9] = test system: NCI-H23
[10] = test system: SN12C
[11] = test system: SW-620
[12] = test system: OVCAR-5
[13] = test system: UO-31
[14] = test system: DU-145
[15] = test system: SF-268
[16] = test system: OVCAR-4
[17] = test system: NCI-H226
[18] = test system: K562
[19] = test system: MDA-MB-435
[20] = test system: SK-MEL-2
[21] = test system: NCI-H522
[22] = test system: SF-295
[23] = test system: HT-29
[24] = test system: SK-MEL-5
[25] = test system: SR
[26] = test system: MOLT-4
[27] = test system: OVCAR-3
[28] = test system: HL-60
[29] = test system: CCRF-CEM
[30] = test system: 786-0
[31] = test system: SF-539
[32] = test system: IGROV-1
[33] = test system: HCT-15
[34] = test system: EKVX
[35] = test system: MCF7
[36] = test system: COLO 205
[37] = test system: OVCAR-8
[38] = test system: Hs-578T
[39] = test system: A498
[40] = test system: SK-MEL-28
[41] = test system: A549
[42] = test system: SK-OV-3
[43] = test system: HOP-92
[44] = test system: NCI-H460
[45] = test system: RXF 393
[46] = test system: HCT-116
[47] = test system: KM12
[48] = test system: HOP-62
[49] = test system: RPMI-8226
[50] = test system: PC-3
[51] = test system: HCC 2998
[52] = test system: T47D
[53] = test system: SNB-19
[54] = test system: UACC-257
[55] = test system: Malme-3M
[56] = test system: MDA-MB-231
[57] = test system: BT-549
[58] = test system: NCI/ADR-RES
[59] = test system: MDA-N
[60] = test system: M19-MEL
[61] = test system: DMS-114
[62] = test system: KM-20L2
[63] = test system: DLD-1
[64] = test system: DMS-273
[65] = test system: HOP-18

CC(C)=CC(Cc1ccccc1)S(=O)(=O)c1nc2ccccc2s1 (stereo not drawn)
GI50 [1]: 2.69 µM (inactive)
GI50 [2]: 12.5 µM (inactive)
GI50 [3]: 4.05 µM (inactive)
GI50 [4]: 18.8 µM (inactive)
GI50 [5]: 20 µM (inactive)
GI50 [6]: 16.6 µM (inactive)
GI50 [7]: 17.2 µM (inactive)
GI50 [8]: 15.9 µM (inactive)
GI50 [9]: 13.5 µM (inactive)
GI50 [10]: 12 µM (inactive)
GI50 [11]: 18.7 µM (inactive)
GI50 [12]: 19.2 µM (inactive)
GI50 [13]: 13.8 µM (inactive)
GI50 [14]: 17.7 µM (inactive)
GI50 [15]: 15.6 µM (inactive)
GI50 [16]: 15.9 µM (inactive)
GI50 [17]: 13.3 µM (inactive)
GI50 [18]: 12.6 µM (inactive)
GI50 [19]: 11 µM (inactive)
GI50 [20]: 13.1 µM (inactive)
GI50 [21]: 11.3 µM (inactive)
GI50 [22]: 26.6 µM (inactive)
GI50 [23]: 19.3 µM (inactive)
GI50 [24]: 13.6 µM (inactive)
GI50 [25]: 1.98 µM (inactive)
GI50 [26]: 2.98 µM (inactive)
GI50 [27]: 15.3 µM (inactive)
GI50 [28]: 2.84 µM (inactive)
GI50 [29]: 2.37 µM (inactive)
GI50 [30]: 14.6 µM (inactive)
GI50 [31]: 16.2 µM (inactive)
GI50 [32]: 19.7 µM (inactive)
GI50 [33]: 17.7 µM
GI50 [34]: 19.6 µM (inactive)
GI50 [35]: 14.7 µM (inactive)
GI50 [36]: 17 µM (inactive)
GI50 [37]: 15.4 µM (inactive)
GI50 [38]: 29.6 µM (inactive)
GI50 [39]: 19.9 µM (inactive)
GI50 [40]: 16.1 µM (inactive)
GI50 [41]: 23.4 µM (inactive)
GI50 [42]: 22.4 µM (inactive)
GI50 [43]: 16.6 µM (inactive)
GI50 [44]: 21.3 µM (inactive)
GI50 [45]: 19.7 µM (inactive)
GI50 [46]: 14 µM (inactive)
GI50 [47]: 18.7 µM (inactive)
GI50 [48]: 28.8 µM (inactive)
GI50 [49]: 10.5 µM (inactive)
GI50 [50]: 16.7 µM (inactive)
GI50 [51]: 19.2 µM (inactive)
GI50 [52]: 23.6 µM (inactive)
GI50 [53]: 17.4 µM (inactive)
GI50 [54]: 21 µM (inactive)
GI50 [55]: 14.5 µM (inactive)
GI50 [56]: 19.8 µM (inactive)
GI50 [57]: 14.6 µM (inactive)
GI50 [58]: 19.7 µM (inactive)
GI50 [59]: 8.13 µM (inactive)

O=C(Nc1cc(Cl)ccc1Cl)c1cc2ccccc2oc1=O
GI50 [1]: 61 µM (inactive)
GI50 [60]: > 100 µM (inactive)
GI50 [2]: > 100 µM (inactive)
GI50 [4]: 39.3 µM (inactive)
GI50 [5]: > 100 µM (inactive)
GI50 [61]: 78 µM (inactive)
GI50 [6]: 15.7 µM (inactive)
GI50 [7]: > 100 µM (inactive)
GI50 [8]: 59.3 µM (inactive)
GI50 [9]: > 100 µM (inactive)
GI50 [10]: 75.9 µM (inactive)
GI50 [11]: > 100 µM (inactive)
GI50 [62]: > 100 µM (inactive)
GI50 [63]: > 100 µM (inactive)
GI50 [64]: 98.2 µM (inactive)
GI50 [18]: > 100 µM (inactive)
GI50 [20]: > 100 µM (inactive)
GI50 [21]: > 100 µM (inactive)
GI50 [22]: 43.3 µM (inactive)
GI50 [23]: > 100 µM (inactive)
GI50 [24]: > 100 µM (inactive)
GI50 [26]: 94.8 µM (inactive)
GI50 [27]: 77.6 µM (inactive)
GI50 [28]: > 100 µM (inactive)
GI50 [29]: 46.8 µM (inactive)
GI50 [30]: 51.8 µM (inactive)
GI50 [31]: > 100 µM (inactive)
GI50 [32]: > 100 µM (inactive)
GI50 [33]: > 100 µM
GI50 [34]: > 100 µM (inactive)
GI50 [36]: > 100 µM (inactive)
GI50 [37]: 88.3 µM (inactive)
GI50 [65]: 20.9 µM (inactive)
GI50 [40]: > 100 µM (inactive)
GI50 [41]: > 100 µM (inactive)
GI50 [42]: 38.9 µM (inactive)
GI50 [44]: 53.2 µM (inactive)
GI50 [45]: 37.2 µM (inactive)
GI50 [46]: > 100 µM (inactive)
GI50 [47]: > 100 µM (inactive)
GI50 [48]: 45.6 µM (inactive)
GI50 [49]: > 100 µM (inactive)
GI50 [54]: 97.3 µM (inactive)
GI50 [55]: 18 µM (inactive)
